Values joined by “and” are separate entries in the source; they are usually repeats but may differ in a detail not shown here. Equal entries are not always repeated.
Tests used:
[1] = tested on: genes related to cell cycle progression; test: RTqPCR of cell cycle-related genes in mouse liver after 25HC3S (Example 3); assay type: in vivo, C57BL/6 mice; details: doses lower than 5 mg/kg, 48 h, dose-dependent
Procedure: PCR assays were performed in 96-well optical reaction plates using the ABI 7500 Fast Real-Time PCR System (Applied Biosystems, Foster City, Calif.). PCR assays were conducted in triplicate wells for each sample. Baseline values of amplification plots were set automatically and threshold values were kept constant to obtain normalized cycle times and linear regression data. The following reaction mixture per well was used: 2×SYBR Green PCR Master Mix (10 ul), primer at the final concentration of 10 uM (1 ul), RNAse-free water (4 ul), cDNA (5 ul, 10 ng). For all experiments the following PCR conditions were used: denaturation at 95° C. for 10 minutes, followed by 40 cycles at 95° C. for 15 seconds, then at 60° C. for 60 seconds. Quantitative normalization of cDNA in each sample was performed using 18S gene as an internal control. Relative quantification was performed using the ΔΔCT method. Suitable primers were used for RtqPCR.

[2] = tested on: apoptotic and cell cycle related genes; test: Mouse Cell cycle RT2 Profiler PCR Array of liver tissues; assay type: in vivo, C57BL/6 mice; details: 5 mg/kg, versus vehicle
Procedure: The real-time PCR array was performed using the Mouse Cell cycle RT2 Profiler™ PCR Array consisting of 84 key genes involved in apoptosis and proliferation as the manufacturer's instruction (SABiosciences, Frederick, Md.). Total mRNA was reverse-transcribed to cDNA as described above. Three of biologically-distinct specimens were pooled to reduce variance. The cDNA was then amplified precisely like real-time PCR in the primers-preloaded PCR plates on the ABI 7500 Fast Real-Time PCR System. ΔΔCT values between different stimulated samples were analyzed as the manufacturer's instruction, which output p-values for fold-regulation change.

[3] = tested on: primary rat hepatocytes (PRH); test: Western blot in primary rat hepatocytes (Example 4); assay type: cell-based; details: Ad-Control-infected group, T0901317 1.5 μM or 25HC 3 μM
Procedure: PRH were prepared as previously described (24). Briefly, parenchymal cells (3.5×10^6) were inoculated in 60-mm plastic Petri dishes coated with rat tail collagen. The plates contained 3 ml of Williams E culture media supplemented with thyroxine (1 μM), dexamethasone (0.1 μM), and penicillin (100 units/ml). Three hours after plating, culture medium was removed and fresh medium was added. Cells were then infected with Ad-SULT2B1b at a multiplicity (MOI) of 10 plaque forming units/cell (pfu/cell) or 100 nM of siRNA-SULT2B1b (ON-TARGET plus siRNA of rat SULT2B1b, Thermo Scientific Dharmacon, Lafayette, Colo.) as previously described (31). The Ad-Control and siRNA-Control (ON-TARGET plus negative control siRNA) were used as controls, respectively. Twenty four hours after infection, cells were treated with T0901317 (1.5 μM) or 25HC (3 μM) for another 24 hours. The cells were harvested at the timepoints as indicated in the text.
Cell lysates were prepared from frozen mouse liver tissues or PRH, and 50 μg of the total proteins were separated by 10% SDS-PAGE, transferred to polyvinylidene difluoride membrane (Millipore, Eschbom, Germany). Specific protein was probed with specific antibodies against PCNA, human SULT2B1b (Santa Cruz Biotechnology, Santa Cruz, Calif.), LXRα (Abcam, Cambridge, Mass.), ATP-binding cassette transporters 1 (ABCA1) (Abcam, Cambridge, Mass.), and SREBP1 (Santa Cruz Biotechnology, Santa Cruz, Calif.). β-Actin (Sigma-Aldrich, St. Louis, Mo.) was used as a loading control. Western analysis was performed by methods known in the art.

For `CC(CCCC(C)(C)O)C1CCC2C3CC=C4CC(OS(=O)(=O)O)CCC4(C)C3CCC12C` (stereo not shown) [25HC3S, 25-hydroxycholesterol-3-sulfate], the “hepatic mRNA of cMyc, cyclin A, FoxM1b, CDC25b” value [1] was “significant up-regulation”, the “decrease of Apaf1 expression” value ([2]; 48 h) was 3 fold and the “decrease of Chek2 expression” value ([2]; 48 h) was 4.5 fold. The “Fold change Apaf1(NM_009684)” value ([2]; 2 days, pooled mRNA) was −3.21 fold, the “Fold change Atr(NM_019864)” value ([2]; 2 days, pooled mRNA) was −2.15 fold and the “Fold change Bag1(NM_009736)” value ([2]; 2 days, pooled mRNA) was 2.0488 fold. For the same molecule, the “Fold change Bnip3(NM_009760)” value ([2]; 2 days, pooled mRNA) was 2.0112 fold, the “Fold change Brca1(NM_009764)” value ([2]; 2 days, pooled mRNA) was −1.87 fold and the “Fold change Ccnb2(NM_007630) Cyclin B2” value ([2]; 2 days, pooled mRNA) was 1.90 fold. For the same molecule, the “Fold change Ccne2(NM_009830) Cyclin E2” value ([2]; 2 days, pooled mRNA) was 2.52 fold, the “Fold change Cdc25a(NM_007658)” value ([2]; 2 days, pooled mRNA) was 1.53 fold and the “Fold change Cdc25c(NM_009860)” value ([2]; 2 days, pooled mRNA) was 1.56 fold. The “Fold change Cdkn1a(NM_007669)” value ([2]; 2 days, pooled mRNA) was 3.0411 fold, the “Fold change Chek2(NM_016681)” value ([2]; 2 days, pooled mRNA) was −4.65 fold and the “Fold change E2f3(NM_010093)” value ([2]; 2 days, pooled mRNA) was 2.0193 fold. The “Fold change Ep300(NM_177821)” value ([2]; 2 days, pooled mRNA) was 1.8114 fold, the “Fold change Esr1(NM_007956)” value ([2]; 2 days, pooled mRNA) was 2.2535 fold and the “Fold change Gadd45a(NM_007836)” value ([2]; 2 days, pooled mRNA) was −1.59 fold. For the same molecule, the “Fold change Hif1a(NM_031168)” value ([2]; 2 days, pooled mRNA) was 1.7576 fold, the “Fold change Mdm2(NM_010786)” value ([2]; 2 days, pooled mRNA) was 1.6222 fold and the “Fold change Myod1(NM_010866)” value ([2]; 2 days, pooled mRNA) was 1.56 fold. The “Fold change Nf1(NM_010897)” value ([2]; 2 days, pooled mRNA) was 2.10 fold, the “Fold change Pcna(NM_011045)” value ([2]; 2 days, pooled mRNA) was 3.7 fold and 3.77 fold and the “Fold change Prkca(NM_011101)” value ([2]; 2 days, pooled mRNA) was 2.29 fold. The “Fold change Tnf(NM_013693)” value ([2]; 2 days, pooled mRNA) was −2.76 fold, the “Fold change Tnfrsf10b(NM_020275)” value ([2]; 2 days, pooled mRNA) was −2.28 fold and the “Fold change Trp73(NM_011642)” value ([2]; 2 days, pooled mRNA) was 2.5194 fold. The “Fold change Wt1(NM_144783)” value ([2]; 2 days, pooled mRNA) was 3.9 fold and 3.90 fold and the “Fold change Xrcc5(NM_009533)” value ([2]; 2 days, pooled mRNA) was −1.90 fold.

`C[C@H](CCCC(C)(C)O)[C@H]1CC[C@H]2[C@@H]3CC=C4C[C@@H](O)CC[C@]4(C)[C@H]3CC[C@]12C` [25HC, 25-hydroxycholesterol] was tested, and the “LXR response gene expressions” value [3] was “significantly increased” and the PCNA expression [3] was “decreased”.
